Measurements reported in patent US10954201B2, “Two-electron donating phenothiazines and use thereof” (University of Kentucky Research Foundation, priority 2016, dated 2021).
In brackets after ≈: the same amount, converted by molar mass. Like-named read-outs stand apart in the source and are kept apart here.

How the values were obtained:
[1] = Cyclic voltammetry, 10 mM analyte in 0.5M LiPF6 in PC (FIG. 1, Table 1); format: physicochemical; conditions: scan rate 100 mV/s
Procedure: FIG. 1 is a graph showing cyclic voltammograms of DMeOEPT, DMeOMEPT, and DMeOMEEPT, performed with 10 mM analyte in 0.5M LiPF6 in PC at a scan rate of 100 mV/s.

[2] = Solubility in electrolyte formulations; format: physicochemical; conditions: for solubility compared to the N-ethyl derivative: while retaining stable redox chemistry
Description: Additionally, in some embodiments, the N-substituted phenothiazine compounds described herein provide increased solubility in electrolyte formulations as compared to existing compounds, such as 2,5-di-tert-butyl-1,4-bis(2-methoxyethoxy)benzene (DBBB). In one embodiment, the glyme substituents provide increased solubility in electrolyte formulations as compared to other derivatives. […] In another embodiment, this solubility in organic solvents permits the use of renewable earth-abundant elements.
In some embodiments, the N-substituted phenothiazine compounds described herein provide a multi-electron donor including high stability and solubility in catholyte formulations. In another embodiment, the catholyte material provides a multi-electron donor that retains high chemical stability when charged. […] For example, when formulated at its solubility limit, diglyme-dimethoxyphenothiazine may provide approximately 5 times the volumetric energy of DBBB, which has an energy density of 10 Ah/L when formulated as a catholyte, and is limited by its solubility (0.4M) and redox chemistry, acting as a single electron donor.

[3] = Oxidation potentials vs. ferrocenium/ferrocene in 0.5M TEATFSI/acetonitrile; format: physicochemical
Description: With regard to Compound IV, oxidation potentials are 0.035 V and 0.625 V vs. ferrocenium/ferrocene in 0.5M TEATFSI/acetonitrile.

[4] = DBBB formulated as a catholyte; cited from earlier work

Row | SMILES | 1st Eox vs. Li (half-wave first oxidation potential) [1] [V] | 2nd Eox vs. Li (half-wave second oxidation potential) [1] [V] | solubility [2] | melting point [°C] | oxidation potential (first) vs. ferrocenium/ferrocene [3] [V] | oxidation potential (second) vs. ferrocenium/ferrocene [3] [V] | solubility compared to the N-ethyl derivative [2] | solubility [4] [mM]
1 | CCN1c2ccc(OC)cc2Sc2cc(OC)ccc21 [Compound I, 3,7-dimethoxy-N-ethyl-phenothiazine] | 3.38 | 3.94 | about 100 mM | 115 to 116 |  |  |  | 
2 | CCN1c2ccc(OCCOCCOC)cc2Sc2cc(OCCOCCOC)ccc21 [Compound IV] |  |  |  |  | 0.035 | 0.625 |  | 
3 | COCCOc1cc(C(C)(C)C)c(OCCOC)cc1C(C)(C)C [DBBB, 2,5-di-tert-butyl-1,4-bis(2-methoxyethoxy)benzene] |  |  |  |  |  |  |  | 400 (≈ 135 mg/mL)

Now from value to molecule, other results behind:

Row | 1st Eox vs. Li (half-wave first oxidation potential) [1] [V] | 2nd Eox vs. Li (half-wave second oxidation potential) [1] [V] | solubility [2] | melting point [°C] | oxidation potential (first) vs. ferrocenium/ferrocene [3] [V] | oxidation potential (second) vs. ferrocenium/ferrocene [3] [V] | solubility compared to the N-ethyl derivative [2] | SMILES | solubility [4] [mM]
4 | 3.42 | 3.96 |  | 108 to 110 |  |  | higher solubility | COCCN1c2ccc(OC)cc2Sc2cc(OC)ccc21 [II, 3,7-dimethoxy-N-methoxyethyl-phenothiazine] | 
5 | 3.41 | 3.98 |  |  |  |  | higher solubility | COCCOCCN1c2ccc(OC)cc2Sc2cc(OC)ccc21 [III, 3,7-dimethoxy-N-((2-methoxy)ethoxy)ethyl-phenothiazine] | 
